Experiments:
[1] = target: Sodium-dependent serotonin transporter (Homo sapiens, UniProt P31645)
[2] = target: Vascular endothelial growth factor receptor 2 (Homo sapiens, UniProt P35968); format: functional
[3] = target: T1, Equilibrative nucleoside transporter 1 (Homo sapiens, UniProt Q99808)
T1 sequence (Q99808 whole entry): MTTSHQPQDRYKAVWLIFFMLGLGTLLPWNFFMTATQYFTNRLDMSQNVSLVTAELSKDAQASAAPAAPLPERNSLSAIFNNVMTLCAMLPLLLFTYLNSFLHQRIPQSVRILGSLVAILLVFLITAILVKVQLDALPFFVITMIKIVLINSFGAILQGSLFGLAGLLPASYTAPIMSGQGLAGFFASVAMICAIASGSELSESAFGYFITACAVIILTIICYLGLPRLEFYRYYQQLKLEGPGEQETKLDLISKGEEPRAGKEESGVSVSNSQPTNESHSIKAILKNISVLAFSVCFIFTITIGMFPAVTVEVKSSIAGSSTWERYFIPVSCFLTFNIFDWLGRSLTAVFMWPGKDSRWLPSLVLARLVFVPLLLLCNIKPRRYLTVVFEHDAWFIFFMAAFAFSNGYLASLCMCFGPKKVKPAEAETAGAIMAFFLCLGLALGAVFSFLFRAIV

[4] = target: T2, Type-1 angiotensin II receptor (Homo sapiens, UniProt P30556)
T2 sequence (P30556 whole entry): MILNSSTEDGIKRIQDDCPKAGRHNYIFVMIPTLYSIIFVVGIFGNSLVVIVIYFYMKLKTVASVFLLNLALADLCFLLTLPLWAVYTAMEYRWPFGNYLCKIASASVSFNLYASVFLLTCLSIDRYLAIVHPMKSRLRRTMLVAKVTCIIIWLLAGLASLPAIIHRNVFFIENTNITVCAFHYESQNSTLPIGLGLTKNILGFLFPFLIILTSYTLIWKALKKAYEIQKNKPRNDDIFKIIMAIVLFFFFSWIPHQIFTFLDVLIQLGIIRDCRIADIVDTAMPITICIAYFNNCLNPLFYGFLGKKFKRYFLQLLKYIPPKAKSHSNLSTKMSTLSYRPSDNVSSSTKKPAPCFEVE

[5] = target: T3, Amine oxidase [flavin-containing] A (Homo sapiens, UniProt P21397); format: functional
T3 sequence (P21397 whole entry): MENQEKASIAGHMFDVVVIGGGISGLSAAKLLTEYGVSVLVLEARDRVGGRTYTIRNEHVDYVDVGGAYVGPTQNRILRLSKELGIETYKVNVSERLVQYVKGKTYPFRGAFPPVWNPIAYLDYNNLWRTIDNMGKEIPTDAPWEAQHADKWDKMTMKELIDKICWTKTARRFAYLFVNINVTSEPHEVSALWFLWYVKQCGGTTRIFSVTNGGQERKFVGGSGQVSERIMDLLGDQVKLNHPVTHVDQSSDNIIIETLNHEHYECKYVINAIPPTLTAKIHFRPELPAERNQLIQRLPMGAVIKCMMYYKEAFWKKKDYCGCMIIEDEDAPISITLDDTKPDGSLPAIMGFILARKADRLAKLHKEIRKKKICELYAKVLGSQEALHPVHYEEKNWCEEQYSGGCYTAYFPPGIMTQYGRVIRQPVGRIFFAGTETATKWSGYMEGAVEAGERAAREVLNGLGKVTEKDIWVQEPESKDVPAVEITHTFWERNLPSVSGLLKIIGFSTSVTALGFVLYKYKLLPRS

[6] = target: T4, Alpha-2A adrenergic receptor (Homo sapiens, UniProt P08913); format: functional, cell-based
T4 sequence (P08913 whole entry): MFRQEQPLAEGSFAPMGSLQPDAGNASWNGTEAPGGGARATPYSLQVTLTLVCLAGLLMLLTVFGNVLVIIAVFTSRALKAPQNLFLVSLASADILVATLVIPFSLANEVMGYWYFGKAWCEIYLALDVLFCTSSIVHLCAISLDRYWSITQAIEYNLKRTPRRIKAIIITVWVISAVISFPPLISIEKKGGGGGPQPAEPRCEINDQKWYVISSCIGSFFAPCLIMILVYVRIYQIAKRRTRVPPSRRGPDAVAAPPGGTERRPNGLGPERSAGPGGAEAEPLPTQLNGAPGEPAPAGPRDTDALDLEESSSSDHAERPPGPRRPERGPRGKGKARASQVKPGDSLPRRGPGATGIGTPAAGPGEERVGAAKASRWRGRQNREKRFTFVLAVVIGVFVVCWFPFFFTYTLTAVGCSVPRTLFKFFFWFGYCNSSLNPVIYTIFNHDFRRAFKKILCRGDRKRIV

[7] = target: Beta-1 adrenergic receptor (Homo sapiens, UniProt P08588); format: functional
[8] = target: Sodium-dependent dopamine transporter (Homo sapiens, UniProt Q01959)
[9] = target: T5, 5-hydroxytryptamine receptor 1A (Homo sapiens, UniProt P08908); format: functional, cell-based
T5 sequence (P08908 whole entry): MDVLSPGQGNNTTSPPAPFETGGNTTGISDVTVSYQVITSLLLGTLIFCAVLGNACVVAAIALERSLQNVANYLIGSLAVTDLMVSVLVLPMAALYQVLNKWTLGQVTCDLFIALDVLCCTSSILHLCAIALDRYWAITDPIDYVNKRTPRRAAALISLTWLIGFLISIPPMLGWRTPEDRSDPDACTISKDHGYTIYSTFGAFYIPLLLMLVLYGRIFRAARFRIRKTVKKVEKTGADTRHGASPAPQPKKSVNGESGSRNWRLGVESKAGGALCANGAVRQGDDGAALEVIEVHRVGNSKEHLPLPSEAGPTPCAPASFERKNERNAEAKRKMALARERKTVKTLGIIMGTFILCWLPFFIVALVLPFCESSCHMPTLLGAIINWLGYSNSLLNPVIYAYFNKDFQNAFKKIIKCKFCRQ

[10] = target: Beta-2 adrenergic receptor (Homo sapiens, UniProt P07550); format: functional, cell-based
Note: assay procedure not described here.

Chain of Vascular endothelial growth factor receptor 2 (P35968 whole entry): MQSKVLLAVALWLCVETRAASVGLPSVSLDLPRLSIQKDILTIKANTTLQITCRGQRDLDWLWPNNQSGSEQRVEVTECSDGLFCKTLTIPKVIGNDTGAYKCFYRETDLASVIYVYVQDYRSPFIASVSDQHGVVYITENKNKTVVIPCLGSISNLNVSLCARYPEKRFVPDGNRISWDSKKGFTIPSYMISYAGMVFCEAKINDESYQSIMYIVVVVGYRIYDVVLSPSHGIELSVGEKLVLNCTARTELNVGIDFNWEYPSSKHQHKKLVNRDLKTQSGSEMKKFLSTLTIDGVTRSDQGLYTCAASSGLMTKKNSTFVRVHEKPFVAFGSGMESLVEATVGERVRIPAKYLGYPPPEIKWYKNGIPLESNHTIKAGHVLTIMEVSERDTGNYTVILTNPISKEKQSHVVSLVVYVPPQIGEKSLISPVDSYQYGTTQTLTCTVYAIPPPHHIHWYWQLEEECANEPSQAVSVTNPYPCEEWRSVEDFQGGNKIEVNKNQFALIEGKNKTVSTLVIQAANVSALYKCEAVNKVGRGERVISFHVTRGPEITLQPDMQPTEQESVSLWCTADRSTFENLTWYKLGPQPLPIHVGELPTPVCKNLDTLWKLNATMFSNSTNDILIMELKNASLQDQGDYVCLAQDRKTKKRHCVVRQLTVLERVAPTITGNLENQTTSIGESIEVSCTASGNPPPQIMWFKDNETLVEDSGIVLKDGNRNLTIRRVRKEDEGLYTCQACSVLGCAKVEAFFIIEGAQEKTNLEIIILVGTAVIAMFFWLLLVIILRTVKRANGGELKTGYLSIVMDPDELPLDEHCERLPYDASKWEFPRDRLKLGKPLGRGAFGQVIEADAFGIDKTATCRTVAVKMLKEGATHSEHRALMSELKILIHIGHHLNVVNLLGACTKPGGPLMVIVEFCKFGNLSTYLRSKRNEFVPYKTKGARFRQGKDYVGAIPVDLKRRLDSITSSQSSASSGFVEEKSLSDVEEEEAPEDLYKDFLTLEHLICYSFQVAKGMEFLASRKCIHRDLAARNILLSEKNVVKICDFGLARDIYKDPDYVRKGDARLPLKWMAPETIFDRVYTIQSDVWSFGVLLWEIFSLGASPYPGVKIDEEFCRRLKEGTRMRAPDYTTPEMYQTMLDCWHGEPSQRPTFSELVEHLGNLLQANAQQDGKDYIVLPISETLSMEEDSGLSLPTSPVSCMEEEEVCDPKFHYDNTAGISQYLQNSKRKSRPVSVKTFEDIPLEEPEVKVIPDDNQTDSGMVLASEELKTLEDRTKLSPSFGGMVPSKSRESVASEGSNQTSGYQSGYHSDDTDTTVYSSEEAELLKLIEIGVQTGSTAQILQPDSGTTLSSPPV
Chain of Sodium-dependent dopamine transporter (Q01959 whole entry): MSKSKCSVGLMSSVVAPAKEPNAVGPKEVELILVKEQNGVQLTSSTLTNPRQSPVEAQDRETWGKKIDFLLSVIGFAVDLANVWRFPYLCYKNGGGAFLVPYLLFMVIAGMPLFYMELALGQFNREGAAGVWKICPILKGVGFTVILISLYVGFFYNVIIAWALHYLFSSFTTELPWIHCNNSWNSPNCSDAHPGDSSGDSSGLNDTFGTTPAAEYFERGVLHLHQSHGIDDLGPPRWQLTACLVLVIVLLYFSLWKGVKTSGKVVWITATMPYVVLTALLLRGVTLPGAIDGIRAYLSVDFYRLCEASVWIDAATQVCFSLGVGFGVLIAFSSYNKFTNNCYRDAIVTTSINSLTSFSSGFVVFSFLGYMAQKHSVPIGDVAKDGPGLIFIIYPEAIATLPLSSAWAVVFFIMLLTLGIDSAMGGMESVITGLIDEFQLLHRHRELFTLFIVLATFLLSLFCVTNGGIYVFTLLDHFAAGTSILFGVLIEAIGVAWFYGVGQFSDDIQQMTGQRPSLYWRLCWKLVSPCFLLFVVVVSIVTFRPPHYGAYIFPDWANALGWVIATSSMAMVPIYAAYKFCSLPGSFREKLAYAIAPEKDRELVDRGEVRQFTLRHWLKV
Chain of Sodium-dependent serotonin transporter (P31645 whole entry): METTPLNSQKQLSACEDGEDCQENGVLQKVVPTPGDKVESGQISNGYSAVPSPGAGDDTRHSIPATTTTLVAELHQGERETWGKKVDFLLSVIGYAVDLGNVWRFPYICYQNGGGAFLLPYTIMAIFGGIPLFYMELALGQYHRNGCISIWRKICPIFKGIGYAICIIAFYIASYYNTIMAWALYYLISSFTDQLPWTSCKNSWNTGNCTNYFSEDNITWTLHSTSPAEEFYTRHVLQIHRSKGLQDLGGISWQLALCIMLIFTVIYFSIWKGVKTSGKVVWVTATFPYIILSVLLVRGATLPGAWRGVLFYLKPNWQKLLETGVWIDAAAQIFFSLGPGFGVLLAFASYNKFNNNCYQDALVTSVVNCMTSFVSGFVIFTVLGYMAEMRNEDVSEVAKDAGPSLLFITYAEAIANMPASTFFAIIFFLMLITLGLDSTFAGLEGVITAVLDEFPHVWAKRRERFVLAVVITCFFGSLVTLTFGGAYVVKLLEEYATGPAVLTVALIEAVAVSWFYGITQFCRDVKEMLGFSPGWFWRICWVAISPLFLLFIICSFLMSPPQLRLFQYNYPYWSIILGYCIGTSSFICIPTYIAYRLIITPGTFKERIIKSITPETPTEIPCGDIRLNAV
Chain of Beta-1 adrenergic receptor (P08588 whole entry): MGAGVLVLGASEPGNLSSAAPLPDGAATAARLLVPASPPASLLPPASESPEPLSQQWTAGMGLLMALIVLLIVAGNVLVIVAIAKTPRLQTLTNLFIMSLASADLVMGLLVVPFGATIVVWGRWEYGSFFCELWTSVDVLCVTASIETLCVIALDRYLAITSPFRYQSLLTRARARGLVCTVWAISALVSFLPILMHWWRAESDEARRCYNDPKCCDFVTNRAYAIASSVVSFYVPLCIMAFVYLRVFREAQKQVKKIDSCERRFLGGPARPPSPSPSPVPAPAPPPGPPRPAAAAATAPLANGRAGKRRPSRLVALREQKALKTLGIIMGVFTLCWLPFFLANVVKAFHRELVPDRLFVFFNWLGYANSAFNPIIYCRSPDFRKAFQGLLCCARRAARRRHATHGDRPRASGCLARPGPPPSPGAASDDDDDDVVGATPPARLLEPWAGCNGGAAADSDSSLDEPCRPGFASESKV
Chain of Beta-2 adrenergic receptor (P07550 whole entry): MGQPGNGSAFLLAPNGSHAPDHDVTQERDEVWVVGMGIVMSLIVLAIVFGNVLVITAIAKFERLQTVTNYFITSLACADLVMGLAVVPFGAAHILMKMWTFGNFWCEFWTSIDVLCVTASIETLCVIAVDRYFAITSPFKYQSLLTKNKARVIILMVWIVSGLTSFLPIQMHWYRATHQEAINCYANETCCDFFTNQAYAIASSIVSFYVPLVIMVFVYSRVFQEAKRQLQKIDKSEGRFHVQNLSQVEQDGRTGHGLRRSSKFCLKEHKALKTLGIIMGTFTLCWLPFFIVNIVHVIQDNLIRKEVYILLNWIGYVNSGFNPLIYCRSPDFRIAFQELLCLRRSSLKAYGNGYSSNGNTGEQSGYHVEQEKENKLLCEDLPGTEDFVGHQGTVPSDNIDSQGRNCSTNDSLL

AC50 [3] [µM]	AC50 [4] [µM]	AC50 [5] [µM]	AC50 [7] [µM]	AC50 [9] [µM]	Compound	AC50 [1] [µM]	AC50 [2] [µM]	further results
					CN1CCC[C@@H]1Cc1c[nH]c2ccc(CCS(=O)(=O)c3ccccc3)cc12	> 30		
					NC(=O)c1nc(F)c[nH]c1=O	> 30	> 30	
> 30	> 30	> 30	> 30	> 30	CC1(C)S[C@@H]2[C@H](NC(=O)[C@H](N)c3ccc(O)cc3)C(=O)N2[C@H]1C(=O)O [AMOXICILLIN]			AC50 [6]: > 30 µM; AC50 [8]: > 30 µM
	> 30	> 30	> 30		CNCC[C@@H](Oc1ccccc1C)c1ccccc1 [ATOMOXETINE]			
					Cc1ccc([C@@H]2O[C@H](CO)[C@@H](O)[C@H](O)[C@H]2O)cc1Cc1ccc(-c2ccc(F)cc2)s1 [CANAGLIFLOZIN ANHYDROUS]	26.1	> 30	
					CN(C)CCN(Cc1ccc(Cl)cc1)c1ccccn1 [CHLOROPYRAMINE]	0.0202	> 30	
					O=C(O)c1cc(=O)c2ccccc2o1 [CHROMOCARB]	> 30	> 30	
> 30	> 30	> 10	> 10	> 10	Clc1cccc(Cl)c1N=C1NCCN1 [CLONIDINE]			AC50 [8]: > 10 µM
> 30	> 30	> 30		> 30	COC(=O)[C@H](c1ccccc1Cl)N1CCc2sccc2C1 [CLOPIDOGREL]			AC50 [10]: > 30 µM; AC50 [6]: 11 µM; AC50 [8]: > 30 µM
					N[C@@H](CSSC[C@H](N)C(=O)O)C(=O)O [CYSTINE]	> 30		
					C[C@]12CC[C@@H]3c4ccc(O)cc4CC[C@H]3[C@@H]1CC[C@@H]2OC(=O)CCC1CCCC1 [ESTRADIOL CYPIONATE]	> 30	> 30	
					CC1(C)O[C@@H]2C[C@H]3[C@@H]4CCC5=CC(=O)CC[C@]5(C)[C@@]4(F)[C@@H](O)C[C@]3(C)[C@]2(C(=O)CCl)O1 [HALCINONIDE]		> 30	
					C[C@]12CCC(=O)C=C1CC[C@@H]1[C@@H]2[C@@H](O)C[C@@]2(C)[C@H]1CC[C@]2(O)C(=O)COC(=O)CCC(=O)O [HYDROCORTISONE HEMISUCCINATE ANHYDROUS]	> 30	> 30	

Compound	AC50 [3] [µM]	AC50 [4] [µM]	AC50 [5] [µM]	AC50 [7] [µM]	AC50 [9] [µM]	AC50 [1] [µM]	AC50 [2] [µM]	further results
CN1C[C@H](C(=O)N[C@]2(C)O[C@@]3(O)[C@@H]4CCCN4C(=O)[C@H](Cc4ccccc4)N3C2=O)C[C@@H]2c3cccc4[nH]cc(c34)C[C@H]21 [DIHYDROERGOTAMINE]	> 30		> 10	> 10	0.14			AC50 [8]: > 30 µM
CNCC[C@H](Oc1cccc2ccccc12)c1cccs1 [DULOXETINE]	> 30	> 30	> 10	15	8.9			AC50 [6]: > 10 µM
